Test results taken from ChEMBL document CHEMBL4396937, “Synthesis of new triazole fused imidazo[2,1-b]thiazole hybrids with emphasis on Staphylococcus aureus virulence factors” (Bioorg Med Chem Lett, 2019).
Values after ≈ are worked out from the molar mass of the structure shown. Active and inactive are the calls of the source. The calls are words filed in the database; no cut-off is given here.

Experiments:
[1] = system: Staphylococcus aureus; experiment: Antibiofilm activity against Staphylococcus aureus MTCC 96 assessed as inhibition of biofilm formation incubated for 48 hrs in presence of Escherichia coli MTCC 739 by FE-SEM analysis; type: functional, organism-based; settings: MTCC 96, 48 h
[2] = system: Pseudomonas aeruginosa; experiment: Antibacterial activity against Pseudomonas aeruginosa MTCC 2453 assessed as reduction in bacterial growth incubated for 24 hrs by agar well diffusion method; type: functional; settings: MTCC 2453, 24 h
[3] = system: Pseudomonas aeruginosa; experiment: Antibiofilm activity against Pseudomonas aeruginosa MTCC 2453 assessed as inhibition of biofilm formation by crystal violet staining-based microtitre plate assay; type: functional, organism-based
[4] = system: Candida albicans; experiment: Antifungal activity against Candida albicans MTCC 3017 assessed as reduction in fungal growth incubated for 24 hrs by agar well diffusion method; type: functional
[5] = system: Staphylococcus aureus; experiment: Antibacterial activity against Staphylococcus aureus MLS-16 MTCC 2940 assessed as reduction in bacterial growth incubated for 24 hrs by agar well diffusion method; type: functional; settings: MLS-16 MTCC 2940, 24 h
[6] = system: Bacillus subtilis; experiment: Antibacterial activity against Bacillus subtilis MTCC 121 assessed as reduction in bacterial growth incubated for 24 hrs by agar well diffusion method; type: functional; settings: MTCC 121, 24 h
[7] = system: Bacillus subtilis; experiment: Antibiofilm activity against Bacillus subtilis MTCC 121 assessed as inhibition of biofilm formation by crystal violet staining-based microtitre plate assay; type: functional, organism-based
[8] = system: Raoultella planticola; experiment: Antibiofilm activity against Klebsiella planticola MTCC 530 assessed as inhibition of biofilm formation by crystal violet staining-based microtitre plate assay; type: functional, organism-based
[9] = system: Micrococcus luteus; experiment: Bactericidal activity against Micrococcus luteus MTCC 2470 assessed as reduction in bacterial survival incubated for 24 hrs followed by transfer of microbial suspension to agar plates and measured at 24 hrs post transfer by agar well diffusion method; type: functional; settings: MTCC 2470, 24 h
[10] = system: Micrococcus luteus; experiment: Antibiofilm activity against Micrococcus luteus MTCC 2470 assessed as inhibition of biofilm formation by crystal violet staining-based microtitre plate assay; type: functional, organism-based
[11] = system: Pseudomonas aeruginosa; experiment: Bactericidal activity against Pseudomonas aeruginosa MTCC 2453 assessed as reduction in bacterial survival incubated for 24 hrs followed by transfer of microbial suspension to agar plates and measured at 24 hrs post transfer by agar well diffusion method; type: functional; settings: MTCC 2453, 24 h
[12] = system: Escherichia coli; experiment: Antibacterial activity against Escherichia coli MTCC 739 assessed as reduction in bacterial growth incubated for 24 hrs by agar well diffusion method; type: functional; settings: MTCC 739, 24 h
[13] = system: Staphylococcus aureus; experiment: Bactericidal activity against Staphylococcus aureus MLS-16 MTCC 2940 assessed as reduction in bacterial survival incubated for 24 hrs followed by transfer of microbial suspension to agar plates and measured at 24 hrs post transfer by agar well diffusion method; type: functional; settings: MLS-16 MTCC 2940, 24 h
[14] = system: Staphylococcus aureus; experiment: Antibiofilm activity against Staphylococcus aureus MLS-16 MTCC 2940 assessed as inhibition of biofilm formation by crystal violet staining-based microtitre plate assay; type: functional, organism-based
[15] = system: MRC5; experiment: Cytotoxicity against human MRC5 cells assessed as reduction in cell viability incubated for 48 hrs by MTT assay; type: cell-based; settings: MRC5, 48 h
[16] = system: Staphylococcus aureus; experiment: Antibacterial activity against Staphylococcus aureus MTCC 96 assessed as reduction in bacterial growth incubated for 24 hrs by agar well diffusion method; type: functional; settings: MTCC 96, 24 h
[17] = system: Bacillus subtilis; experiment: Bactericidal activity against Bacillus subtilis MTCC 121 assessed as reduction in bacterial survival incubated for 24 hrs followed by transfer of microbial suspension to agar plates and measured at 24 hrs post transfer by agar well diffusion method; type: functional; settings: MTCC 121, 24 h
[18] = system: Micrococcus luteus; experiment: Antibacterial activity against Micrococcus luteus MTCC 2470 assessed as reduction in bacterial growth incubated for 24 hrs by agar well diffusion method; type: functional; settings: MTCC 2470, 24 h
[19] = system: Escherichia coli; experiment: Bactericidal activity against Escherichia coli MTCC 739 assessed as reduction in bacterial survival incubated for 24 hrs followed by transfer of microbial suspension to agar plates and measured at 24 hrs post transfer by agar well diffusion method; type: functional; settings: MTCC 739, 24 h
[20] = system: Staphylococcus aureus; experiment: Antibiofilm activity against Staphylococcus aureus MTCC 96 assessed as inhibition of biofilm formation by crystal violet staining-based microtitre plate assay; type: functional, organism-based
[21] = system: Candida albicans; experiment: Fungicidal activity against Candida albicans MTCC 3017 assessed as reduction in fungal survival incubated for 24 hrs followed by transfer of microbial suspension to agar plates and measured at 24 hrs post transfer by agar well diffusion method; type: functional
[22] = system: Staphylococcus aureus; experiment: Bactericidal activity against Staphylococcus aureus MTCC 96 assessed as reduction in bacterial survival incubated for 24 hrs followed by transfer of microbial suspension to agar plates and measured at 24 hrs post transfer by agar well diffusion method; type: functional; settings: MTCC 96, 24 h
[23] = system: Raoultella planticola; experiment: Antibacterial activity against Klebsiella planticola MTCC 530 assessed as reduction in bacterial growth incubated for 24 hrs by agar well diffusion method; type: functional; settings: MTCC 530, 24 h
[24] = system: Raoultella planticola; experiment: Bactericidal activity against Klebsiella planticola MTCC 530 assessed as reduction in bacterial survival incubated for 24 hrs followed by transfer of microbial suspension to agar plates and measured at 24 hrs post transfer by agar well diffusion method; type: functional; settings: MTCC 530, 24 h
[25] = system: Escherichia coli; experiment: Antibiofilm activity against Escherichia coli MTCC 739 assessed as inhibition of biofilm formation by crystal violet staining-based microtitre plate assay; type: functional, organism-based

Row | Compound | MIC [2] [µg/mL] | IC50 [3] [µg/mL] | MIC [5] [µg/mL] | MIC [6] [µg/mL] | IC50 [7] [µg/mL] | IC50 [8] [µg/mL] | MBC [9] [µg/mL] | IC50 [10] [µg/mL] | MBC [11] [µg/mL] | MIC [12] [µg/mL] | MBC [13] [µg/mL] | IC50 [14] [µg/mL] | IC50 [15] [µg/mL] | MIC [16] [µg/mL] | MBC [17] [µg/mL] | MIC [18] [µg/mL] | MBC [19] [µg/mL] | IC50 [20] [µg/mL] | MBC [22] [µg/mL] | MIC [23] [µg/mL] | further results
1 | O=C(O)c1cn(C2CC2)c2cc(N3CCNCC3)c(F)cc2c1=O [CIPROFLOXACIN] | 0.9 (≈ 2.72 µM) | 7.4 (≈ 22.3 µM) | 0.9 (≈ 2.72 µM) | 0.9 (≈ 2.72 µM) | 6.6 (≈ 19.9 µM) | 8.6 (≈ 26 µM) | 1.9 (≈ 5.73 µM) | 6.8 (≈ 20.5 µM) | 1.9 (≈ 5.73 µM) | 0.9 (≈ 2.72 µM) | 1.9 (≈ 5.73 µM) | 6.6 (≈ 19.9 µM) | 53.4 (≈ 161 µM) | 0.9 (≈ 2.72 µM) | 1.9 (≈ 5.73 µM) | 0.9 (≈ 2.72 µM) | 1.9 (≈ 5.73 µM) | 6.7 (≈ 20.2 µM) | 1.9 (≈ 5.73 µM) | 0.9 (≈ 2.72 µM) | IC50 [1]: 11.6 µg/mL; MIC [4]: inactive; MFC [21]: inactive; MBC [24]: 1.9 µg/mL (≈ 5.73 µM)
2 | O=C(c1cn(-c2ccc(Cl)cc2)nn1)c1c(-c2ccc(Cl)cc2)nc2sccn12 | 3.9 (≈ 8.86 µM) | 19.3 (≈ 43.8 µM) | 7.8 (≈ 17.7 µM) | 3.9 (≈ 8.86 µM) | 13.2 (≈ 30 µM) | 16.8 (≈ 38.2 µM) | 7.8 (≈ 17.7 µM) | 13.7 (≈ 31.1 µM) | 7.8 (≈ 17.7 µM) | 3.9 (≈ 8.86 µM) | 15.6 (≈ 35.4 µM) | 11.9 (≈ 27 µM) | 24.2 (≈ 55 µM) | 3.9 (≈ 8.86 µM) | 7.8 (≈ 17.7 µM) | 3.9 (≈ 8.86 µM) | 7.8 (≈ 17.7 µM) | 18.4 (≈ 41.8 µM) | 7.8 (≈ 17.7 µM) | 3.9 (≈ 8.86 µM) | MIC ([4]; MTCC 3017, 24 h): 7.8 µg/mL (≈ 17.7 µM); IC50 [25]: 14 µg/mL (≈ 31.8 µM); MFC ([21]; MTCC 3017, 24 h): 15.6 µg/mL (≈ 35.4 µM); MBC [24]: 7.8 µg/mL (≈ 17.7 µM)
3 | O=C(c1cn(-c2ccc(Br)cc2)nn1)c1c(-c2ccc(Cl)cc2)nc2sccn12 | 3.9 (≈ 8.05 µM) | 17.5 (≈ 36.1 µM) | 7.8 (≈ 16.1 µM) | 3.9 (≈ 8.05 µM) | 13.5 (≈ 27.8 µM) | 20.5 (≈ 42.3 µM) | 7.8 (≈ 16.1 µM) | 16 (≈ 33 µM) | 7.8 (≈ 16.1 µM) | 3.9 (≈ 8.05 µM) | 15.6 (≈ 32.2 µM) | 14 (≈ 28.9 µM) | 37.3 (≈ 76.9 µM) | 3.9 (≈ 8.05 µM) | 7.8 (≈ 16.1 µM) | 3.9 (≈ 8.05 µM) | 7.8 (≈ 16.1 µM) | 21.3 (≈ 43.9 µM) | 7.8 (≈ 16.1 µM) | 3.9 (≈ 8.05 µM) | MIC ([4]; MTCC 3017, 24 h): 7.8 µg/mL (≈ 16.1 µM); IC50 [25]: 16.2 µg/mL (≈ 33.4 µM); MFC ([21]; MTCC 3017, 24 h): 15.6 µg/mL (≈ 32.2 µM); MBC [24]: 15.6 µg/mL (≈ 32.2 µM)
